Laboratory results as given in ChEMBL document CHEMBL1201861, “Genomics of Drug Sensitity in Cancer screening data, Wellcome Trust Sanger Institute”.

Columns and labels:
Assay in all cases: cells
Format in all cases: functional, cell-based
Settings in all cases: Homo sapiens
[1] = test system: COLO-800;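 further: growth inhibition of COLO-800 cells, read out with a cell viability assay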
Description: SANGER: Inhibition of human COLO-800 cell growth in a cell viability assay.

[2] = test system: COR-L23;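 further: cell viability assay measuring how strongly compounds suppress growth of COR-L23 cells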
Description: SANGER: Inhibition of human COR-L23 cell growth in a cell viability assay.

[3] = test system: CP66-MEL;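 further: growth inhibition of CP66-MEL cells determined in a cell viability assay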
Description: SANGER: Inhibition of human CP66-MEL cell growth in a cell viability assay.

[4] = test system: D-263MG
Description: SANGER: Inhibition of human D-263MG cell growth in a cell viability assay.

[5] = test system: DU-4475
Description: SANGER: Inhibition of human DU-4475 cell growth in a cell viability assay.

[6] = test system: EM-2;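 further: growth inhibition of EM-2 cells, read out with a cell viability assay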
Description: SANGER: Inhibition of human EM-2 cell growth in a cell viability assay.

[7] = test system: ES4;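 further: growth inhibition of human ES4 cells, read out by a cell viability assay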
Description: SANGER: Inhibition of human ES4 cell growth in a cell viability assay.

[8] = test system: ES7;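 further: growth inhibition of cultured human ES7 cells, read out as cell viability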
Description: SANGER: Inhibition of human ES7 cell growth in a cell viability assay.

[9] = test system: EW-11;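 further: growth inhibition of human EW-11 cells, measured with a cell viability assay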
Description: SANGER: Inhibition of human EW-11 cell growth in a cell viability assay.

[10] = test system: EW-18;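 further: growth inhibition of EW-18 cells, read out by a cell viability assay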
Description: SANGER: Inhibition of human EW-18 cell growth in a cell viability assay.

[11] = test system: GI-ME-N;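 further: growth inhibition of human GI-ME-N cells, read out with a cell viability assay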
Description: SANGER: Inhibition of human GI-ME-N cell growth in a cell viability assay.

[12] = test system: GOTO;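 further: growth inhibition of GOTO cells, read out by a cell viability assay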
Description: SANGER: Inhibition of human GOTO cell growth in a cell viability assay.

[13] = test system: GT3TKB;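 further: growth inhibition of the cell line, read out with a cell viability assay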
Description: SANGER: Inhibition of human GT3TKB cell growth in a cell viability assay.

[14] = test system: HL-60;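 further: growth inhibition of human HL-60 cells, read out with a cell viability assay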
Description: SANGER: Inhibition of human HL-60 cell growth in a cell viability assay.

[15] = test system: HT
Description: SANGER: Inhibition of human HT cell growth in a cell viability assay.

[16] = test system: IST-MEL1;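 further: growth inhibition of the cell line, read out with a cell viability assay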
Description: SANGER: Inhibition of human IST-MEL1 cell growth in a cell viability assay.

[17] = test system: IST-MES1;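 further: growth inhibition of IST-MES1 cells, measured with a cell viability assay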
Description: SANGER: Inhibition of human IST-MES1 cell growth in a cell viability assay.

[18] = test system: K562
Description: SANGER: Inhibition of human K-562 cell growth in a cell viability assay.

[19] = test system: KE-37;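 further: growth inhibition of KE-37 cells, read out with a cell viability assay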
Description: SANGER: Inhibition of human KE-37 cell growth in a cell viability assay.

[20] = test system: KM-H2;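 further: growth inhibition of KM-H2 cells, read out by a cell viability assay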
Description: SANGER: Inhibition of human KM-H2 cell growth in a cell viability assay.

[21] = test system: KNS-42;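 further: growth inhibition of KNS-42 cells, read out with a cell viability assay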
Description: SANGER: Inhibition of human KNS-42 cell growth in a cell viability assay.

[22] = test system: KNS-81-FD;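 further: growth inhibition of KNS-81-FD cells, read out with a cell viability assay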
Description: SANGER: Inhibition of human KNS-81-FD cell growth in a cell viability assay.

[23] = test system: KYSE-410;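 further: growth inhibition of KYSE-410 cells, measured through a cell viability readout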
Description: SANGER: Inhibition of human KYSE-410 cell growth in a cell viability assay.

[24] = test system: L-363
Description: SANGER: Inhibition of human L-363 cell growth in a cell viability assay.

[25] = test system: LB2241-RCC;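 further: cell viability assay measuring how strongly the cultured human renal carcinoma line is prevented from growing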
Description: SANGER: Inhibition of human LB2241-RCC cell growth in a cell viability assay.

[26] = test system: LB373-MEL-D;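 further: growth inhibition of the cell line, read out in a cell viability assay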
Description: SANGER: Inhibition of human LB373-MEL-D cell growth in a cell viability assay.

[27] = test system: LS-123
Description: SANGER: Inhibition of human LS-123 cell growth in a cell viability assay.

[28] = test system: MEG-01;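 further: growth inhibition of MEG-01 cells, read out by a cell viability assay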
Description: SANGER: Inhibition of human MEG-01 cell growth in a cell viability assay.

[29] = test system: ML-2;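 further: growth inhibition of ML-2 cells, measured with a cell viability readout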
Description: SANGER: Inhibition of human ML-2 cell growth in a cell viability assay.

[30] = test system: MMAC-SF;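 further: growth inhibition of human MMAC-SF cells, read out with a cell viability assay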
Description: SANGER: Inhibition of human MMAC-SF cell growth in a cell viability assay.

[31] = test system: MN-60;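 further: growth inhibition of the MN-60 cell line, determined with a cell viability assay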
Description: SANGER: Inhibition of human MN-60 cell growth in a cell viability assay.

[32] = test system: NB10;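 further: growth inhibition of NB10 cells, read out by a cell viability assay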
Description: SANGER: Inhibition of human NB10 cell growth in a cell viability assay.

[33] = test system: NB5;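 further: growth inhibition of NB5 cells, read out as cell viability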
Description: SANGER: Inhibition of human NB5 cell growth in a cell viability assay.

[34] = test system: NCI-H1299;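 further: growth inhibition of human NCI-H1299 cells, read out by a cell viability assay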
Description: SANGER: Inhibition of human NCI-H1299 cell growth in a cell viability assay.

[35] = test system: NCI-H1650;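 further: growth inhibition of human NCI-H1650 cells measured by a cell viability assay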
Description: SANGER: Inhibition of human NCI-H1650 cell growth in a cell viability assay.

[36] = test system: NCI-H2170;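 further: cell viability assay measuring growth inhibition of human NCI-H2170 cancer cells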
Description: SANGER: Inhibition of human NCI-H2170 cell growth in a cell viability assay.

[37] = test system: NCI-H446;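 further: growth inhibition of NCI-H446 cells determined by a cell viability assay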
Description: SANGER: Inhibition of human NCI-H446 cell growth in a cell viability assay.

[38] = test system: SNU-5;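 further: cell viability readout used to measure growth inhibition in human NCI-SNU-5 cells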
Description: SANGER: Inhibition of human NCI-SNU-5 cell growth in a cell viability assay.

[39] = test system: NKM-1;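 further: growth inhibition of NKM-1 cells, read out with a cell viability assay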
Description: SANGER: Inhibition of human NKM-1 cell growth in a cell viability assay.

[40] = test system: NTERA-2-cl-D1;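 further: inhibition of cell growth, measured with a cell viability assay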
Description: SANGER: Inhibition of human NTERA-S-cl-D1 cell growth in a cell viability assay.

[41] = test system: OVCAR-5;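 further: growth inhibition of human OVCAR-5 cells, read out with a cell viability assay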
Description: SANGER: Inhibition of human OVCAR-5 cell growth in a cell viability assay.

[42] = test system: P12-Ichikawa
[43] = test system: PSN1;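 further: suppression of growth of human PSN1 cells, read out by a cell viability assay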
Description: SANGER: Inhibition of human PSN1 cell growth in a cell viability assay.

[44] = test system: RMG-I;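 further: growth inhibition of human RMG-I cells, read out with a cell viability assay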
Description: SANGER: Inhibition of human RMG-I cell growth in a cell viability assay.

[45] = test system: RXF 393;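 further: growth inhibition of human RXF 393 cells, read out with a cell viability assay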
Description: SANGER: Inhibition of human RXF393 cell growth in a cell viability assay.

[46] = test system: SF-268;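 further: growth inhibition of SF-268 cells determined with a cell viability assay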
Description: SANGER: Inhibition of human SF268 cell growth in a cell viability assay.

[47] = test system: SF-539;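 further: Read-out is a cell viability assay, with IC50 reflecting inhibition of cell growth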
Description: SANGER: Inhibition of human SF539 cell growth in a cell viability assay.

[48] = test system: SH-4;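 further: growth inhibition of SH-4 cells, read out with a cell viability assay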
Description: SANGER: Inhibition of human SH-4 cell growth in a cell viability assay.

[49] = test system: SJSA-1;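 further: growth inhibition of human SJSA-1 cells, read out through a cell viability measurement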
Description: SANGER: Inhibition of human SJSA-1 cell growth in a cell viability assay.

[50] = test system: SK-MEL-2;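 further: growth inhibition of human SK-MEL-2 cells measured with a cell viability assay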
Description: SANGER: Inhibition of human SK-MEL-2 cell growth in a cell viability assay.

[51] = test system: SK-OV-3;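 further: growth inhibition of SK-OV-3 human cells, read out with a cell viability assay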
Description: SANGER: Inhibition of human SK-OV-3 cell growth in a cell viability assay.

[52] = test system: A101D;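 further: growth inhibition of the cell line, measured with a viability assay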
Description: SANGER: Inhibition of human A101D cell growth in a cell viability assay.

[53] = test system: A2058;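 further: reduction of A2058 cell growth, read out with a viability assay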
Description: SANGER: Inhibition of human A2058 cell growth in a cell viability assay.

[54] = test system: A2780;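 further: growth inhibition of A2780 cells, read out with a cell viability assay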
Description: SANGER: Inhibition of human A2780 cell growth in a cell viability assay.

[55] = test system: ALL-PO
Description: SANGER: Inhibition of human ALL-PO cell growth in a cell viability assay.

[56] = test system: AM-38
Description: SANGER: Inhibition of human AM-38 cell growth in a cell viability assay.

[57] = test system: BE-13
Description: SANGER: Inhibition of human BE-13 cell growth in a cell viability assay.

[58] = test system: BT-474
Description: SANGER: Inhibition of human BT-474 cell growth in a cell viability assay.

[59] = test system: Becker
Description: SANGER: Inhibition of human Becker cell growth in a cell viability assay.

[60] = test system: TE-10
Description: SANGER: Inhibition of human TE-10 cell growth in a cell viability assay.

[61] = test system: UACC-257
Description: SANGER: Inhibition of human UACC-257 cell growth in a cell viability assay.

[62] = test system: VA-ES-BJ
Description: SANGER: Inhibition of human VA-ES-BJ cell growth in a cell viability assay.

[63] = test system: no-11
Description: SANGER: Inhibition of human no-11 cell growth in a cell viability assay.

[64] = test system: COLO-320-HSR
Description: SANGER: Inhibition of human COLO-320-HSR cell growth in a cell viability assay.

**Q.** Which IC50 [1] does the source give for `Cn1cc(/C=C2\C(=O)Nc3cccnc32)c2ccccc21` here?
**A.** > 2000 nM

**Q.** And the IC50 [2]?
**A.** > 2000 nM

**Q.** And the IC50 [3]?
**A.** > 2000 nM

**Q.** And the IC50 [4]?
**A.** > 2000 nM

**Q.** And the IC50 [5]?
**A.** > 2000 nM

**Q.** And the IC50 [6]?
**A.** > 2000 nM

**Q.** And the IC50 [7]?
**A.** > 2000 nM

**Q.** What about the IC50 [8] of the same compound?
**A.** > 2000 nM

**Q.** And the IC50 [9]?
**A.** > 2000 nM

**Q.** What about the IC50 [10] of the same compound?
**A.** > 2000 nM

**Q.** And the IC50 [11]?
**A.** > 2000 nM

**Q.** What about the IC50 [12] of the same compound?
**A.** > 2000 nM

**Q.** What about the IC50 [13] of the same compound?
**A.** > 2000 nM

**Q.** And the IC50 [14]?
**A.** > 2000 nM

**Q.** What about the IC50 [15] of the same compound?
**A.** > 2000 nM

**Q.** What about the IC50 [16] of the same compound?
**A.** > 2000 nM

**Q.** What about the IC50 [17] of the same compound?
**A.** > 2000 nM

**Q.** What about the IC50 [18] of the same compound?
**A.** > 2000 nM

**Q.** And the IC50 [19]?
**A.** > 2000 nM

**Q.** What about the IC50 [20] of the same compound?
**A.** > 2000 nM

**Q.** And the IC50 [21]?
**A.** > 2000 nM

**Q.** What about the IC50 [22] of the same compound?
**A.** > 2000 nM

**Q.** What about the IC50 [23] of the same compound?
**A.** > 2000 nM

**Q.** And the IC50 [24]?
**A.** > 2000 nM

**Q.** What about the IC50 [25] of the same compound?
**A.** > 2000 nM

**Q.** And the IC50 [26]?
**A.** > 2000 nM

**Q.** What about the IC50 [27] of the same compound?
**A.** > 2000 nM

**Q.** And the IC50 [28]?
**A.** > 2000 nM

**Q.** What about the IC50 [29] of the same compound?
**A.** > 2000 nM

**Q.** And the IC50 [30]?
**A.** > 2000 nM

**Q.** And the IC50 [31]?
**A.** > 2000 nM

**Q.** What about the IC50 [32] of the same compound?
**A.** > 2000 nM

**Q.** And the IC50 [33]?
**A.** > 2000 nM

**Q.** And the IC50 [34]?
**A.** > 2000 nM

**Q.** And the IC50 [35]?
**A.** > 2000 nM

**Q.** And the IC50 [36]?
**A.** > 2000 nM

**Q.** What about the IC50 [37] of the same compound?
**A.** > 2000 nM

**Q.** What about the IC50 [38] of the same compound?
**A.** > 2000 nM

**Q.** What about the IC50 [39] of the same compound?
**A.** > 2000 nM

**Q.** And the IC50 [40]?
**A.** > 2000 nM

**Q.** And the IC50 [41]?
**A.** > 2000 nM

**Q.** And the IC50 [42]?
**A.** > 2000 nM

**Q.** What about the IC50 [43] of the same compound?
**A.** > 2000 nM

**Q.** What about the IC50 [44] of the same compound?
**A.** > 2000 nM

**Q.** And the IC50 [45]?
**A.** > 2000 nM

**Q.** And the IC50 [46]?
**A.** > 2000 nM

**Q.** What about the IC50 [47] of the same compound?
**A.** > 2000 nM

**Q.** And the IC50 [48]?
**A.** > 2000 nM

**Q.** What about the IC50 [49] of the same compound?
**A.** > 2000 nM

**Q.** And the IC50 [50]?
**A.** > 2000 nM

**Q.** What about the IC50 [51] of the same compound?
**A.** 397 nM

**Q.** What about the IC50 [52] of the same compound?
**A.** > 2000 nM

**Q.** What about the IC50 [53] of the same compound?
**A.** > 2000 nM

**Q.** And the IC50 [54]?
**A.** > 2000 nM

**Q.** And the IC50 [55]?
**A.** > 2000 nM

**Q.** And the IC50 [56]?
**A.** > 2000 nM

**Q.** What about the IC50 [57] of the same compound?
**A.** > 2000 nM

**Q.** And the IC50 [58]?
**A.** > 2000 nM

**Q.** What about the IC50 [59] of the same compound?
**A.** > 2000 nM

**Q.** What about the IC50 [60] of the same compound?
**A.** > 2000 nM

**Q.** What about the IC50 [61] of the same compound?
**A.** 1530 nM

**Q.** And the IC50 [62]?
**A.** > 2000 nM

**Q.** And the IC50 [63]?
**A.** > 2000 nM

**Q.** What about the IC50 [64] of the same compound?
**A.** > 2000 nM

**Q.** `CCCS(=O)(=O)Nc1ccc(F)c(C(=O)c2c[nH]c3ncc(Cl)cc23)c1F` [PLX-4720] was tested. Which IC50 [1] did it give?
**A.** > 10000 nM

**Q.** And the IC50 [2]?
**A.** > 10000 nM

**Q.** What about the IC50 [3] of the same compound?
**A.** 4160 nM

**Q.** And the IC50 [4]?
**A.** > 10000 nM

**Q.** And the IC50 [5]?
**A.** 74.6 nM

**Q.** What about the IC50 [6] of the same compound?
**A.** > 10000 nM

**Q.** What about the IC50 [7] of the same compound?
**A.** > 10000 nM

**Q.** What about the IC50 [8] of the same compound?
**A.** > 10000 nM

**Q.** And the IC50 [9]?
**A.** > 10000 nM

**Q.** What about the IC50 [10] of the same compound?
**A.** > 10000 nM

**Q.** And the IC50 [11]?
**A.** > 10000 nM

**Q.** And the IC50 [12]?
**A.** > 10000 nM

**Q.** And the IC50 [13]?
**A.** > 10000 nM

**Q.** What about the IC50 [14] of the same compound?
**A.** > 10000 nM

**Q.** And the IC50 [15]?
**A.** > 10000 nM

**Q.** And the IC50 [16]?
**A.** > 10000 nM

**Q.** What about the IC50 [17] of the same compound?
**A.** > 10000 nM

**Q.** And the IC50 [18]?
**A.** > 10000 nM

**Q.** And the IC50 [19]?
**A.** > 10000 nM

**Q.** What about the IC50 [20] of the same compound?
**A.** > 10000 nM

**Q.** And the IC50 [21]?
**A.** > 10000 nM

**Q.** What about the IC50 [22] of the same compound?
**A.** > 10000 nM

**Q.** What about the IC50 [23] of the same compound?
**A.** > 10000 nM

**Q.** And the IC50 [24]?
**A.** > 10000 nM

**Q.** And the IC50 [25]?
**A.** 7370 nM

**Q.** And the IC50 [26]?
**A.** > 10000 nM

**Q.** And the IC50 [27]?
**A.** > 10000 nM

**Q.** What about the IC50 [28] of the same compound?
**A.** > 10000 nM

**Q.** And the IC50 [29]?
**A.** > 10000 nM

**Q.** What about the IC50 [30] of the same compound?
**A.** 686 nM

**Q.** What about the IC50 [31] of the same compound?
**A.** > 10000 nM

**Q.** What about the IC50 [32] of the same compound?
**A.** > 10000 nM

**Q.** And the IC50 [33]?
**A.** > 10000 nM

**Q.** And the IC50 [34]?
**A.** > 10000 nM

**Q.** What about the IC50 [35] of the same compound?
**A.** > 10000 nM

**Q.** What about the IC50 [36] of the same compound?
**A.** > 10000 nM

**Q.** And the IC50 [37]?
**A.** > 10000 nM

**Q.** What about the IC50 [38] of the same compound?
**A.** 2120 nM

**Q.** What about the IC50 [39] of the same compound?
**A.** > 10000 nM

**Q.** And the IC50 [40]?
**A.** > 10000 nM

**Q.** And the IC50 [41]?
**A.** > 10000 nM

**Q.** What about the IC50 [42] of the same compound?
**A.** > 10000 nM

**Q.** And the IC50 [43]?
**A.** > 10000 nM

**Q.** And the IC50 [44]?
**A.** > 10000 nM

**Q.** What about the IC50 [45] of the same compound?
**A.** > 10000 nM

**Q.** What about the IC50 [46] of the same compound?
**A.** > 10000 nM

**Q.** And the IC50 [47]?
**A.** > 10000 nM

**Q.** What about the IC50 [48] of the same compound?
**A.** 414 nM

**Q.** What about the IC50 [49] of the same compound?
**A.** > 10000 nM

**Q.** And the IC50 [50]?
**A.** > 10000 nM

**Q.** What about the IC50 [51] of the same compound?
**A.** > 10000 nM

**Q.** And the IC50 [52]?
**A.** 326 nM

**Q.** And the IC50 [53]?
**A.** 4720 nM

**Q.** What about the IC50 [54] of the same compound?
**A.** > 10000 nM

**Q.** And the IC50 [55]?
**A.** > 10000 nM

**Q.** And the IC50 [56]?
**A.** > 10000 nM

**Q.** And the IC50 [57]?
**A.** > 10000 nM

**Q.** What about the IC50 [58] of the same compound?
**A.** > 10000 nM

**Q.** And the IC50 [59]?
**A.** > 10000 nM

**Q.** What about the IC50 [60] of the same compound?
**A.** > 10000 nM

**Q.** What about the IC50 [61] of the same compound?
**A.** > 10000 nM

**Q.** What about the IC50 [62] of the same compound?
**A.** > 10000 nM

**Q.** What about the IC50 [63] of the same compound?
**A.** > 10000 nM

**Q.** What about the IC50 [64] of the same compound?
**A.** > 10000 nM
